Patent US6369052B1, “Combination of huperzine and nicotinic compounds as a neuroprotective agent” (Georgetown University, priority 2000, dated 2002)
Read-outs that look alike come from different tables or passages of the source.

Key:
Assay type in all cases: cell-based
[1] = tested on: mixed cortical cultures from mouse brain; experiment: NMDA-induced cell toxicity in mixed cortical (neuronal-glial) cultures, LDH release (Example 1)
Procedure: Graph B represents the dose-dependent effect of (−)-huperzine A alone (unfilled circles) and in the presence (filled circles) of 10 μM (−)-nicotine. Toxicity was induced by a 10 minute treatment with 75 μM NMDA in the absence or presence of the indicated drugs.
In a first experiment, four samples each containing neuronal-glial cultures from mouse cerebral cortical cultures and a different concentration of (−)-nicotine (ranging from 0 to 100 μM) were treated for 10 minutes with 75 μM of NMDA (commercially available, for example, from Sigma Chemical Co., St. Louis, Mo.) to induce cell death. The cultures were prepared from 15-day-old fetal Swiss-Webster mice, as described in Bruno et al., 1998 Neuroscience 85:751-7 (hereinafter “Bruno et al.”), incorporated herein by reference. Neuronal cells were plated in 96-well plates on a layer of confluent glial cells at a density of 200,000 cells/well in EMEM medium containing 5% fetal bovine serum and 5% horse serum. Then the NMDA was removed replacing the medium with fresh serum-free culture medium and cell death was assessed for each sample by measuring the amount of lactate dehydrogenase (“LDH”) released into the medium according to the procedure described in Bruno et al. The data are summarized in FIG. 1, Graph A, as lines connecting the values (represented by unfilled squares) of % of NMDA toxicity (i.e., % cell death) at the corresponding concentration of (−)-nicotine in μM.
In a second experiment, six samples each containing neuronal-glial cultures from mouse brain and a different concentration of (−)-huperzine A (ranging from 0 to 10 μM) were treated with 75 μM of NMDA, using the above-described procedure. Then cell death was assessed for each sample using the procedure described above. The data are summarized in FIG. 1, Graph B, as lines connecting the values (represented by unfilled circles) of % of NMDA toxicity at the corresponding concentration of (−)-huperzine A in μM.
In a third experiment, six samples each containing neuronal-glial cultures from mouse brain, a different concentration of (−)-huperzine A (ranging from 0 to 10 μM), and a fixed concentration of 10 μM of (−)-nicotine were treated with 75 μM NMDA, using the procedure described above. Then cell death was assessed for each sample as above. The data are summarized in FIG. 1, Graph B, as lines connecting the values (represented by black-filled circles) of % of NMDA toxicity at the corresponding μM-concentration of(−)-huperzine A.

[2] = tested on: cultures of granule neurons prepared from mouse cerebellum; experiment: β-amyloid-peptide-induced cell toxicity in cerebellar granule neurons, LDH release (Example 2)
Procedure: Toxicity was induced by a 48 hour treatment with 25 μM β-amyloid peptide in the absence or presence of the indicated drugs.
In a first experiment, four samples each containing cultures of granule neurons prepared from mouse cerebellum and a different concentration of (−)-nicotine (ranging from 0 to 100 μM) were treated for 48 hours with 25 μM β-amyloid peptide (“AP”) (commercially available, for example, from Bachem, Inc., Torrance, Calif.) to induce cell death, according to the procedure described in Copani et al., 1995 Mol Pharmacol 47:890-7 (hereinafter “Copani et al.”).
Then cell death was assessed by measuring the amount of LDH released into the medium according to the procedure described in Bruno et al. The data are summarized in FIG. 2, Graph A, as lines connecting the values (represented by unfilled squares) of % of β-amyloid-peptide-induced toxicity (i.e., % cell death) at the corresponding concentration of nicotine in μM.
In a second experiment, four samples each containing cultures of granule neurons prepared from mouse cerebellum and a different concentration of (−)-huperzine A (ranging from 0 to 10 μM), were treated for 48 hours with 25 μM AP, (25-35 fragment) according to the above-described procedure. Then cell death was assessed as described above. The data are summarized in FIG. 2, Graph B, as lines connecting the values (represented by unfilled circles) of % of β-amyloid-peptide-induced toxicity at a particular concentration of (−)-huperzine A in μM.
In a third experiment, 4 samples each containing cultures of granule neurons prepared from mouse cerebellum, a different concentrations of (−)-huperzine A (ranging from 0 to 10 μM), and a fixed concentration of 10 μM of (−)-nicotine were treated for 48 hours with 25 μM AP using the procedure described above. Then cell death was assessed as above. The data are summarized in FIG. 2, Graph B, as lines connecting the values (represented by black-filled circles) of % of β-amyloid-peptide-induced toxicity at a particular μM-concentration of (−)-huperzine A.

[3] = tested on: neuronal-glial cultures from mouse cerebral cortical cultures; experiment: NMDA-induced cell toxicity in mixed cortical cultures, low drug concentrations, LDH release (Example 3)
[4] = drug alone, 75 μM NMDA for 10 minutes, FIG. 1
[5] = drug alone, nicotine 0-100 μM, huperzine A 0-10 μM
[6] = drug alone, 25 μM β-amyloid peptide for 48 hours, FIG. 2

| Compound | NMDA-induced cell death [1] | cell death (% of NMDA toxicity) at maximal neuroprotection [1] | maximal level of neuroprotection [1] | neuroprotection [1] | cell death (% of β-amyloid-peptide-induced toxicity) at maximal neuroprotection [2] | maximal level of neuroprotection [2] | neuroprotection [2] | toxicity induced by 25 μM AP [2] | neuroprotective effect [3] | cell death (% of NMDA toxicity) at maximal neuroprotection [1, 4] | maximal level of neuroprotection [1, 4] | NMDA-induced cell death [1, 5] | cell death (% of β-amyloid-peptide-induced toxicity) at maximal neuroprotection [2, 6] | maximal level of neuroprotection [2, 6] | toxicity induced by 25 μM AP [2, 5] | neuroprotective effect ([3]; (−)-huperzine A alone, 1-1000 nM, 100 μM NMDA for 10 minutes) |
| --- | --- | --- | --- | --- | --- | --- | --- | --- | --- | --- | --- | --- | --- | --- | --- | --- |
| CN1CCCC1c1cccnc1 (single isomer, unassigned; (-)) [(−)-nicotine] | decreased in a dose-dependent manner | 45% | about 55% | about 40% | 45% | about 55% | about 20% | decreased in a dose-dependent manner | little effect |  |  |  |  |  |  |  |
| C/C=C1\[C@H]2C=C(C)C[C@]1(N)c1ccc(=O)[nH]c1C2 [(−)-huperzine A] |  |  |  |  |  |  |  |  |  | 55% | about 45% | decreased in a dose-dependent manner | 70% | about 30% | decreased in a dose-dependent manner | no significant neuroprotective effects |
